A short description of series [1]: In vivo pharmacokinetic study, plasma and brain. Also noted: species or system male Wistar rats. The settings on record: male, Wistar, po, rat; for AUC(0-t) / Cmax / MRT / Tmax / half-life: 10 mg/kg p.o.; for half-life: read-out: t0.5 (terminal half-life). As for the experimental part: Subsequently, the pharmacokinetic profile of 27 and 28 was assessed in male Wistar rats after single intragastric administration at the dose of 10 mg/kg. The studied compounds were rapidly absorbed and crossed the blood–brain barrier, reaching the Cmax in 5 min in both plasma and brain.
For LC–MS/MS analyses, an HPLC Nexera system (Shimadzu, Kyoto, Japan) combined with the triple quadrupole API 3200 mass spectrometer (SCIEX, Framingham, MA, USA) interfaced via an electrospray source and controlled by Analyst software version 1.5.2 (SCIEX, Framingham, MA, USA) was applied.
The chromatographic separation was performed on Acclaim Polar Advantage II (3.0 mm × 74 mm, 3 μm, 120A, Dionex, USA) analytical column using the mobile phase composed of eluent A, HPLC grade acetonitrile acidified with 0.1% (v/v) formic acid, and eluent B, HPLC grade water with 0.1% (v/v) formic acid. The elution gradient started with 90% of eluent B, increasing to 90% of eluent A over 5 min, returned to 90% of eluent B over 5 min, and maintained at 90% of eluent B for 5 min. The mobile phase flow rate was set at 400 μL/min. The injection volume was 20 μL, and the total time of analysis was 15 min. The temperatures of the column thermostat and the autosampler were set at 40 and 10 °C, respectively.
For increased sensitivity and selectivity, the MS/MS data acquisition was performed in the selected reaction monitoring (SRM) mode. The ions measured were m/z 585.1 (Q1) and m/z 516.2 (Q3) for compounds 27 and 28 and m/z 305 (Q1) and m/z 248 (Q3) for IS. The quantification was done via peak area ratio.
Protein precipitation with acetonitrile was used for purification of plasma and brain homogenates. The whole brain was homogenized using an electric tissue homogenizer in an appropriate amount of phosphate buffer (pH 7.4) in 1:2.5 ratio. Thereafter, a volume of 100 μL of plasma or brain homogenate was transferred to 2 mL Eppendorf tubes, and a 5 μL aliquot of the internal standard (IS, PH002437, Merck, Darmstadt, Germany) in working solution (5 μg/mL) was added and vortex-mixed for 10 s. Thereafter, 200 μL of acetonitrile was added and mixed for 20 min, followed by centrifugation (28 672g) for 10 min at 4 °C. The supernatant was transferred to chromatographic vials, and 20 μL was injected into the analytical column.
A group of 64 male, 8-week-old, Wistar strain outbred rats weighing between 200 and 220 g each were purchased from the Animal House at the Faculty of Pharmacy, Jagiellonian University Medical College, Krakow (Poland) and housed in standard polycarbonate cages, in groups of four animals per cage. Environmental conditions during the study were constant: relative humidity 50–60%, temperature 22 ± 2 °C, normal 12 h light–dark cycle (7 a.m. to 7 p.m. light). Standard rodent chow and water were available ad libitum. Compounds 27 and 28 were dissolved in saline and administered by intragastric gavage at a dose of 10 mg/kg, and the animals were sacrificed at specific time-points: 0 min, predose (n = 4), 5 min (n = 4), 15 min (n = 4), 30 min (n = 4), 60 min (n = 4), 120 min (n = 4), 240 min (n = 4), and 480 min (n = 4) after administration. Animals were deeply anaesthetized by ip injections of 50 mg/kg ketamine plus 8 mg/kg xylazine before sacrifice. First, the blood was collected into heparinized tubes, and the blood samples were centrifuged at 1000g for 10 min to obtain plasma. Following the animals’ euthanasia, the whole brain was collected. The plasma and brain samples were immediately frozen at −80 °C for future analysis. All experimental procedures were carried out in accordance with EU Directive 2010/63/EU and approved by the I Local Ethics Committee for Experiments on Animals of the Jagiellonian University in Krakow, Poland (No. 83/2018).

A further series concerns the target 5-HT6R (Homo sapiens, UniProt P50406). Put plainly: Basal cAMP production (constitutive Gs signaling) in NG108-15 cells transiently expressing 5-HT6R, CAMYEL BRET. Format: cell-based. Also noted: expressed in transfected cells; host or cells: NG108-15 (transient, Lipofectamine 2000, cotransfected with the CAMYEL sensor). To be noted: for functional profile: 5-HT6R-dependent Gs signaling, NG108-15 cells; for IC50: decrease of basal cAMP, NG108-15 cells transiently expressing 5-HT6R. The procedure: NG108-15 cells were grown in Dulbecco’s modified Eagle’s medium (DMEM) supplemented with 10% dialyzed fetal calf serum, 2% hypoxanthine/aminopterin/thymidine (Life Technologies), and antibiotics. cAMP measurement was performed in cells transiently expressing 5-HT6R using the bioluminescence resonance energy transfer (BRET) sensor for cAMP, CAMYEL (cAMP sensor using YFP-Epac-RLuc).[45] NG108-15 cells were cotransfected in suspension with 5-HT6R (0.5 μg DNA/million cells) and CAMYEL constructs (1 μg DNA/million cells), using Lipofectamine 2000 according to the manufacturer’s protocol, and plated in white 96-well plates (Greiner) at a density of 50 000 cells per well. […] Coelanterazine H (Molecular Probes) was added at a final concentration of 5 μM and left at room temperature for 5 min. BRET was measured using a Mithras LB 940 plate reader (Berthold Technologies).
For orientation: cAMP levels reflect the balance of adenylyl cyclase and phosphodiesterase activity.

Where two headings read alike, the source gives them in different places.

5-HT6R, sequence (P50406 whole entry): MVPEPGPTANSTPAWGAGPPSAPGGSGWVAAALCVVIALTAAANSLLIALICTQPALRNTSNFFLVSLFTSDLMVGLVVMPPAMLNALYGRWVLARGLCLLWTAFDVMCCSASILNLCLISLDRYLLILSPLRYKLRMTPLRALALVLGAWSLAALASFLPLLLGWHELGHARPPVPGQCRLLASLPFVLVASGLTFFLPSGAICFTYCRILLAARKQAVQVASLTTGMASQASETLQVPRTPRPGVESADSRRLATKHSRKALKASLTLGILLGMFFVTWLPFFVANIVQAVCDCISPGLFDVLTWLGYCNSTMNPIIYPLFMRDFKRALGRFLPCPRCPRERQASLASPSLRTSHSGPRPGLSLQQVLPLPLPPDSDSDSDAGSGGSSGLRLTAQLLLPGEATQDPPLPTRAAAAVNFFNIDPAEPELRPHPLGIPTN

As usually defined, the AUC(0-t) is exposure summed from dosing to a finite time, without extrapolation to infinity. As a reminder, the Cmax is the peak of the concentration-time curve. In general, MRT refers to a mean duration of stay, worked out from the concentration-time curve. As usually defined, the Tmax is the time from dosing to the highest level. The term half-life denotes the time needed for the level to fall by half in the phase considered. For orientation: IC50 means the concentration needed to halve the response being measured. A higher IC50 goes with a need for much substance. As for `O=C(N[C@@H]1CCNC1)c1ccn(S(=O)(=O)c2cccc(Cl)c2)c1-c1ccc(F)cc1` [Compound 27, (R)-2-(4-Fluorophenyl)-1-[(3-chlorophenyl)sulfonyl]-N-(pyrrolidin-3-yl)-1H-pyrrole-3-carboxamide], the Kp in series [1] (brain/plasma, 10 mg/kg intragastric, read-out: brain/plasma ratio) was 0.63. Further, in series [1] (brain), the AUC(0-t) was 812 ng·h/mL, the Cmax worked out at 427 ng/g, the MRT was 3.02 h and the Tmax is 5 min. Also, the half-life in series [1] (brain) stood at 4.18 h. For the same compound, in series [1] (plasma), the AUC(0-t) was 1290 ng·h/mL, the Cmax came to 1040 ng/mL, the MRT is 2.72 h and the Tmax was 5 min. The half-life in series [1] (plasma) was found to be 1.96 h. Also, at 5-HT6R, the functional profile entry is recorded as “inverse agonist” and 265 nM corresponded to half-maximal inhibition (IC50).

`O=C(N[C@H]1CCNC1)c1ccn(S(=O)(=O)c2cccc(Cl)c2)c1-c1ccc(F)cc1` [Compound 28, (S)-2-(4-Fluorophenyl)-1-[(3-chlorophenyl)sulfonyl]-N-(pyrrolidin-3-yl)-1H-pyrrole-3-carboxamide]: in series [1] (brain), the exposure AUC(0-t) is 289 ng·h/mL, the peak concentration (Cmax) stood at 51.7 ng/g, the MRT is 4.43 h and the Tmax was 5 min. In series [1] (plasma), the AUC(0-t) is 3390 ng·h/mL, the highest level (Cmax) was 3500 ng/mL, the MRT was 3.35 h and the Tmax was 5 min. Further, the half-life in series [1] (plasma) came to 4.95 h. Further, on 5-HT6R, the functional profile entry is recorded as “inverse agonist” and the IC50 stood at 140 nM.

The values are drawn from article PMC8041276 (ACS Chemical Neuroscience, 2021).
